Laboratory results as given in patent US5904857A, “4-alkyl and aryl semicarbazides as oxygen scavengers” (Nalco Chemical Company, priority 1997, dated 1999).

Tests used:
[1] = Oxygen scavenger screening: dissolved O2 in effluent water (apparatus of FIG. 1); conditions: Equivalence Scavenger:O2 2:1, 250 ° F., feed pH 9.0-9.5
Method: The apparatus of FIG. 1 was utilized to evaluate the efficiency of various oxygen scavengers. Reference is made to FIG. 1. The feedstream was ambient temperature (22° C.) air-saturated deionized water. Air-saturation of the feedwater was maintained with a continuous purge with CO2 -free air. The pH of the feedwater was adjusted to within the range of 9.0-9.5 with reagent grade sodium hydroxide. All wetted parts were constructed from 316 stainless steel. Syringe infusion pumps were used for injection of scavenger and catalyst. A metering pump pressurized the flow to 85 psig. The first heating bath heated the water stream to about 214° F. in about 30 seconds. The water residence time in the second bath was 4.5 minutes, and the effluent temperature was 251° F. The water stream was cooled slightly below ambient temperature within a few seconds, the pressure was released, and the oxygen concentration of the effluent water was continuously monitored utilizing an Orbisphere oxygen probe at the exit sample point.
The data of Table 1 illustrate a remarkable reduction in dissolved O2 for the scavengers of this invention when utilized in conjunction with a catalyst in this temperature range.

[2] = Long term stability: hydrazine concentrations in high amine formulations over weeks (procedure of Example 5); format: physicochemical
From the text: The procedure described in Example 5 was utilized to study long term stability. […] Thus, they are more advantageous than the conventional carbohydrazide treatment.

[3] = Comparative stability study: hydrazine buildup in high amine formulations over days (p-dimethylaminobenzaldehyde method, ASTM D1385-78); format: physicochemical
[4] = cited from earlier work
[5] = cited from earlier work; remark: listed apart in the source
[6] = catalyst none, None (untreated) 7800-8300
[7] = 6% scavenger / 40% CHA (cyclohexylamine)
[8] = 6% scavenger in 40% cyclohexylamine

SMILES: CCN(CC)C(=O)NN [4,4-diethylsemicarbazide, N,N-diethylsemicarbazide]
- Dissolved O2 ([1]; catalyst Co): 6500 ppb
- Dissolved O2 ([1]; catalyst Cu): 189 ppb
- Dissolved O2 [1, 6]: 7300 ppb
- Hydrazine (ppm) at 0 weeks [2, 7]: 114 ppm
- Hydrazine (ppm) at 5 weeks [2, 7]: 149 ppm
- Hydrazine (ppm) at 8 weeks ([2]; 6% scavenger / 40% CHA (cyclohexylamine), 8 weeks): 178 ppm

SMILES: CC(C)NC(=O)NN [4-isopropylsemicarbazide, N-isopropyl semicarbazide]
- Dissolved O2 ([1]; catalyst Co): 6500 ppb
- Dissolved O2 ([1]; catalyst Cu): 98 ppb
- Dissolved O2 [1, 6]: 7500 ppb

SMILES: NNC(=O)Nc1ccccc1 [4-phenyl semicarbazide]
- Dissolved O2 ([1]; catalyst Co): 4180 ppb
- Dissolved O2 ([1]; catalyst Cu): 164 ppb
- Dissolved O2 [1, 6]: 7480 ppb

SMILES: NNC(=O)NN [CHz, carbohydrazide]
- Hydrazine (ppm) at 0 days [3, 8]: 433 ppm
- Hydrazine (ppm) at 3 days [3, 8]: 1420 ppm
- Hydrazine (ppm) at 6 days [3, 8]: 2100 ppm
- Hydrazine (ppm) at 0 days ([3]; 6% scavenger in 40% morpholine): 94 ppm
- Hydrazine (ppm) at 3 days ([3]; 6% scavenger in 40% morpholine): 280 ppm
- Hydrazine (ppm) at 6 days ([3]; 6% scavenger in 40% morpholine): 465 ppm
- Hydrazine (ppm) at 0 days ([3]; 6% scavenger, no amine): 54 ppm
- Hydrazine (ppm) at 3 days ([3]; 6% scavenger, no amine): 56 ppm
- Hydrazine (ppm) at 6 days ([3]; 6% scavenger, no amine): 59 ppm
- Hydrazine (ppm) at 0 weeks [2, 7]: 433 ppm
- Hydrazine (ppm) at 5 weeks [2, 7]: 6300 ppm
- Hydrazine (ppm) at 0 weeks ([2]; 6% scavenger / 40% morpholine): 94 ppm
- Hydrazine (ppm) at 5 weeks ([2]; 6% scavenger / 40% morpholine): 2016 ppm

SMILES: NN [Hydrazine, hydrazine]
- absorption ([4]; Kirk-Othmer): readily absorbed through the mouth, skin and respiratory system
- toxicity ([4]; Kirk-Othmer): highly toxic
- corneal damage ([4]; contact with the eye): permanent corneal damage may result from contact with the eye
- high dose effects ([4]; high doses): high doses may cause convulsions and other damaging side effects
- low dose effects ([4]; low doses): Low doses may cause central nervous system depression
- Dissolved O2 ([1]; catalyst Cu): 241 ppb
- Dissolved O2 [1, 6]: 7500 ppb
- elimination of residual oxygen ([5]; Kirk-Othmer): efficiently eliminates the residual oxygen
- metal passivation ([5]; adherent protective layer of magnetite over iron surfaces): good metal passivator
